Test results: paper PMC9841533, “Microtubule-Stabilizing 1,2,4-Triazolo[1,5-a]pyrimidines as Candidate Therapeutics for Neurodegenerative Disease: Matched Molecular Pair Analyses and Computational Studies Reveal New Structure–Activity Insights” (Journal of Medicinal Chemistry, 2022)
Where a name gives a salt, the structure may show the parent alone. Read-outs that look alike come from different tables or passages of the source.

Assays:
[1] = test system: acetylated α-tubulin (AcTub) levels in QBI293 cells; test: QBI293 cell assay of MT stabilization: acetylated α-tubulin ELISA; type: cell-based
Description: (§1) All test compounds were initially screened in the same cell-based (QBI293) assay of MT stabilization used in our previous SAR studies[11],[12] so as to allow direct comparison with literature data. Changes in levels of acetylated α-tubulin (AcTub) and total α-tubulin (α-Tub), relative to vehicle-treated negative control cells, were determined after 4 h of incubation with test compounds at 1 and 10 μM. To account for possible day-to-day differences in the responsiveness of cells to MT-stabilizing treatment, compound-dependent changes in AcTub levels relative to DMSO-treated cells were also normalized to the corresponding changes caused by 100 nM of 5 that was used as a positive control. In addition, docking studies, binding free energy calculations, and in selected cases, molecular dynamic simulations were conducted using an X-ray structure of the vinca and seventh sites (PDB: 5NJH,[10]7CLD[13]). […] For selected compounds, additional studies included testing in the QBI293 cell AcTub assay at additional compound concentrations, and/or evaluation of test compounds for their ability to prevent MT collapse in primary neuron cultures treated with the phosphatase inhibitor, okadaic […] (OA). Finally, cytotoxicity studies in QBI293 and HeLa cells were also conducted for representative examples (Supporting Information).
(§2) Compound-induced changes in acetylated-tubulin and α-tubulin in QBI293 cells or primary mouse or rat neurons were as previously described.[11],[12] […] The plated cells were incubated overnight, after which the medium was aspirated and fresh medium containing vehicle (0.25–0.3% DMSO) or test compound was added. Test compounds were prepared as 4–20 mM stock solutions in 100% DMSO, and these were diluted in culture medium prior to addition to the QBI293 cells. After 4 h incubation, whole-cell extracts were prepared from the QBI293 cells as described[11] and the supernatant fraction from each sample was assessed for protein content by bicinchoninic acid (BCA) assay. The amount of acetyl-tubulin (AcTub) and α-tubulin (αTub) within the cell extract samples was quantified using specific enzyme-linked immunosorbent assays (ELISA), as previously described.[11] Acetyl-tubulin levels were determined in a similar manner in rat or mouse cortical neuron cultures in which embryonic dissociated cortical neurons were plated at 3 × 10^5 cells/well in poly-D-lysine-coated 12-well plates, essentially as previously described.[11] […] Culture homogenates were prepared for the determination of AcTub levels by ELISA as previously described.[11]

[2] = test system: total α-tubulin (α-Tub) levels in QBI293 cells; test: QBI293 cell assay: total α-tubulin ELISA; type: cell-based
Description: as §1, §2

[3] = test system: acetylated α-tubulin (AcTub) levels in QBI293 cells; design: method as in PMID 26980057, PMID 33411523; conditions: cited from earlier work; for Class (cellular phenotype): activity reported in previous studies
[4] = test system: total α-tubulin (α-Tub) levels in QBI293 cells; design: method as in PMID 26980057, PMID 33411523; conditions: 4 h incubation, reported in previous studies, cited from earlier work
[5] = 4 h, 1 uM compound, read-out: AcTub (1uM)
[6] = 4 h, 10 uM compound, read-out: AcTub (10 uM)
[7] = 4 h, 1 uM compound, read-out: AlfaTub (1uM)
[8] = 4 h, 10 uM compound, read-out: AlfaTub (10 uM)
[9] = 4 h incubation, reported in previous studies
[10] = 4 h incubation, 10 μM, reported in previous studies

Structure (SMILES)	AcTub (1 uM - normalized) ([1]; 1 uM compound)	AcTub (10 uM - normalized) ([1]; 10 uM compound)	fold induction at 1 µM [1, 5]	fold induction at 10 µM [1, 6]	fold induction at 1 µM [2, 7]	fold induction at 10 µM [2, 8]	Class (cellular phenotype) [3]	α-Tub 1 μM, fold-change compared to vehicle (DMSO)-treated cells [4] [fold-change]	further results
CC(C)[C@H](Nc1c(-c2c(F)cc(F)cc2F)c(Cl)nc2ncnn12)C(F)(F)F [Compound 9]	0.17	0.38	3.12	6.78	1.04	1.06	I	1.04 ± 0.01	
CC(C)(C)CNc1c(-c2c(F)cc(F)cc2F)c(Cl)nc2ncnn12 [Compound 11]	0.30	0.71					I	1.03 ± 0.07	AcTub (1uM) ([1]; 1 uM compound): 2.04; AcTub (10 uM) ([1]; 10 uM compound): 4.79; AlfaTub (1uM) ([2]; 1 uM compound): 1.03; AlfaTub (10 uM) ([2]; 10 uM compound): 1.06; AcTub 1 μM, fold-change compared to positive control compound 5 (100 nM) (in parentheses) [3, 9]: 0.30 fold-change; AcTub 1 μM, fold-change compared to vehicle (DMSO)-treated cells [3, 9]: 2.04 ± 0.11 fold-change; AcTub 10 μM, fold-change compared to vehicle (DMSO)-treated cells [3, 10]: 4.79 ± 0.74 fold-change
CC(C)[C@H](C)Nc1c(-c2c(F)cc(F)cc2F)c(Cl)nc2ncnn12 [Compound 7]							I		
C[C@@H](Nc1c(-c2c(F)cc(OCCCN(C)C)cc2F)c(Cl)nc2ncnn12)C1(C)N=N1 [Compound 66]	1.68	0.07	21.7	0.93	0.73	1.01			α-Tub 10 μM, fold-change compared to vehicle (DMSO)-treated cells [4]: 1.01 ± 0.05 fold-change
CC1(CNc2c(-c3c(F)cc(F)cc3F)c(Cl)nc3ncnn23)N=N1 [Compound 61]	0.12	0.27	1.56	3.42	1.08	1.03	I	1.08 ± 0.04	AcTub 1 μM, fold-change compared to positive control compound 5 (100 nM) (in parentheses) [3, 9]: 0.12 fold-change; α-Tub 10 μM, fold-change compared to vehicle (DMSO)-treated cells [4]: 1.03 ± 0.04 fold-change
C[C@H](Nc1c(-c2c(F)cc(F)cc2F)c(Cl)nc2ncnn12)C(C)(C)C [Compound 12]							I		
C[C@@H](Nc1c(-c2c(F)cc(F)cc2F)c(Cl)nc2ncnn12)C(C)(C)C [Compound 10]							I		
C[C@H](Nc1c(-c2c(F)cc(OCCCN(C)C)cc2F)c(Cl)nc2ncnn12)C1(C)N=N1 [Compound 67]	1.01	0.04	6.7	0.28	0.69	0.78		0.69 ± 0.05	AcTub 10 μM, fold-change compared to vehicle (DMSO)-treated cells [3, 10]: 0.28 ± 0.03 fold-change
C[C@H](Nc1c(-c2c(F)cc(F)cc2F)c(Cl)nc2ncnn12)C1(C)N=N1 [Compound 62]	0.13	0.28	0.84	1.85	1.07	0.94	I		AcTub 10 μM, fold-change compared to vehicle (DMSO)-treated cells [3, 10]: 1.85 ± 0.08 fold-change; α-Tub 10 μM, fold-change compared to vehicle (DMSO)-treated cells [4]: 0.94 ± 0.02 fold-change
CC(C)[C@@H](Nc1c(-c2c(F)cc(F)cc2F)c(Cl)nc2ncnn12)C(F)(F)F [Compound 8]	0.16	0.73	2.79	13	1.1	0.61		1.10 ± 0.09	AcTub 1 μM, fold-change compared to vehicle (DMSO)-treated cells [3, 9]: 2.79 ± 0.04 fold-change; AcTub 10 μM, fold-change compared to vehicle (DMSO)-treated cells [3, 10]: 13.0 ± 0.54 fold-change
CC(C)[C@@H](C)Nc1c(-c2c(F)cc(F)cc2F)c(Cl)nc2ncnn12 [Compound 1]							I		
CN(C)CCCOc1cc(F)c(-c2c(Cl)nc3ncnn3c2NCC2(C)N=N2)c(F)c1 [Compound 65]	0.81	0.02	10.5	0.29	0.36	0.19			AcTub 1 μM, fold-change compared to positive control compound 5 (100 nM) (in parentheses) [3, 9]: 0.81 fold-change; AcTub 1 μM, fold-change compared to vehicle (DMSO)-treated cells [3, 9]: 10.5 ± 0.4 fold-change; AcTub 10 μM, fold-change compared to positive control compound 5 (100 nM) (in parentheses) [3, 10]: 0.02 fold-change; α-Tub 10 μM, fold-change compared to vehicle (DMSO)-treated cells [4]: 0.19 ± 0.02 fold-change
Fc1cc(F)c(-c2c(Cl)nc3ncnn3c2NCC2(C(F)(F)F)CC2)c(F)c1 [Compound 14, 5-Chloro-N-((1-(trifluoromethyl)cyclopropyl)methyl)-6-(2,4,6-trifluorophenyl)-[1,2,4]triazolo[1,5-a]pyrimidin-7-amine]	0.22	0.34	1.3	2	1	0.97			AcTub 1 μM, fold-change compared to positive control compound 5 (100 nM) (in parentheses) ([1]; 4 h incubation, 1 μM): 0.22 fold-change; fold induction at 1 µM ([1]; 4 h incubation, 1 μM, read-out: AcTub 1 μM, fold-change compared to vehicle (DMSO)-treated cells): 1.3 ± 0.09; AcTub 10 μM, fold-change compared to positive control compound 5 (100 nM) (in parentheses) ([1]; 4 h incubation, 10 μM): 0.34 fold-change; fold induction at 10 µM ([1]; 4 h incubation, 10 μM, read-out: AcTub 10 μM, fold-change compared to vehicle (DMSO)-treated cells): 2 ± 0.36; fold induction at 1 µM ([2]; 4 h incubation, 1 μM, read-out: α-Tub 1 μM, fold-change compared to vehicle (DMSO)-treated cells): 1 ± 0.04; fold induction at 10 µM ([2]; 4 h incubation, 10 μM, read-out: α-Tub 10 μM, fold-change compared to vehicle (DMSO)-treated cells): 0.97 ± 0.09
C[C@@H](Nc1c(-c2c(F)cc(OCCCN(C)C)cc2F)c(Cl)nc2ncnn12)C(C)(C)C [Compound 24, (R)-3-(4-(5-Chloro-7-((3,3-dimethylbutan-2-yl)amino)-[1,2,4]triazolo[1,5-a]pyrimidin-6-yl)-3,5-difluorophenoxy)-N,N-dimethylpropan-1-aminium Formate]									cellular AcTub at higher (30 μM) concentration ([1]; 4 h, 30 μM): further concentration-dependent decrease in cellular AcTub; total α-Tub at higher (30 μM) concentration ([2]; 4 h, 30 μM): without a reduction of total α-Tub
C[C@@H](Nc1c(-c2c(F)cc(F)cc2F)c(Cl)nc2ncnn12)C1(C)N=N1 [Compound 63]	0.11	0.36	1.42	4.28	0.92	0.89	I		AcTub 1 μM, fold-change compared to vehicle (DMSO)-treated cells [3, 9]: 1.42 ± 0.08 fold-change
